The text below walks through data of ChEMBL document CHEMBL1201861, “Genomics of Drug Sensitity in Cancer screening data, Wellcome Trust Sanger Institute”.

A value given as a limit tells only on which side of the number the result lay.

In one assay the test system is EVSA-T. Nature of the assay: cells. The assay is classed as functional, cell-based, Homo sapiens. To be noted: Homo sapiens, EVSA-T.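 Further: growth inhibition of EVSA-T cells, read out with a cell viability assay.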
A further assay relates to MONO-MAC-6. Briefly: cells. To be noted: Homo sapiens, MONO-MAC-6. The assay is classed as functional, cell-based, Homo sapiens.
The subject of a further assay is NALM-6. Nature of the assay: cells. The assay is classed as functional, cell-based, Homo sapiens. The settings on record: Homo sapiens, NALM-6.
The subject of the next assay is NCI-H889. Briefly: cells. The assay is classed as functional, cell-based, Homo sapiens. The settings on record: Homo sapiens, NCI-H889.
A further assay deals with P31-FUJ. Nature of the assay: cells. The assay is classed as functional, cell-based, Homo sapiens. To be noted: Homo sapiens, P31-FUJ.
Another assay relates to RPMI-6666. Briefly: cells. The format is functional, cell-based, Homo sapiens. To be noted: Homo sapiens, RPMI-6666.
The subject of another assay is RPMI 8402. Briefly: SANGER: Inhibition of human RPMI-8402 cell growth in a cell viability assay. The assay is classed as functional, cell-based. To be noted: Homo sapiens, RPMI 8402.
The test system of the next assay is SIMA. Nature of the assay: cells. The settings on record: Homo sapiens, SIMA. The assay is classed as functional, cell-based, Homo sapiens.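 Further: growth inhibition of SIMA cells, measured with a cell viability readout.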
A further assay has as its system BC1 cell line. Nature of the assay: SANGER: Inhibition of human BC-1 cell growth in a cell viability assay. The format is functional, cell-based. To be noted: Homo sapiens, BC1.
The test system of a further assay is CA46. Nature of the assay: cells. The format is functional, cell-based, Homo sapiens. The settings on record: Homo sapiens, CA46.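 Further: growth inhibition of human CA46 cells, read out by a cell viability assay.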
In the next assay the test system is CHP-126. Briefly: cells. The assay is classed as functional, cell-based, Homo sapiens. To be noted: Homo sapiens, CHP-126.
Another assay deals with CMK. Briefly: cells. The format is functional, cell-based, Homo sapiens. To be noted: Homo sapiens, CMK.

Description for CA46: SANGER: Inhibition of human CA46 cell growth in a cell viability assay.
Description for CHP-126: SANGER: Inhibition of human CHP-126 cell growth in a cell viability assay.
Description for CMK: SANGER: Inhibition of human CMK cell growth in a cell viability assay.
Description for EVSA-T: SANGER: Inhibition of human EVSA-T cell growth in a cell viability assay.
Description for MONO-MAC-6: SANGER: Inhibition of human MONO-MAC-6 cell growth in a cell viability assay.
Description for NALM-6: SANGER: Inhibition of human NALM-6 cell growth in a cell viability assay.
Description for NCI-H889: SANGER: Inhibition of human NCI-H889 cell growth in a cell viability assay.
Description for P31-FUJ: SANGER: Inhibition of human P31-FUJ cell growth in a cell viability assay.
Description for RPMI-6666: SANGER: Inhibition of human RPMI-6666 cell growth in a cell viability assay.
Description for SIMA: SANGER: Inhibition of human SIMA cell growth in a cell viability assay.

Regarding `COc1cc(N2CCN(C)CC2)ccc1Nc1ncc2c(n1)N(C)c1ccccc1C(=O)N2C`, the IC50 in the assay on EVSA-T is more than 8000 nM; in the assay on MONO-MAC-6, more than 8000 nM; in the assay on NALM-6, 4960 nM; in the assay with NCI-H889, more than 8000 nM; in the assay on P31-FUJ it was more than 8000 nM; in the assay with RPMI-6666, 7860 nM. Also, the IC50 in the assay with RPMI 8402 (read-out: IC50) is 4500 nM; with SIMA, more than 8000 nM; in the assay with BC1 cell line it was more than 8000 nM; with CA46, more than 8000 nM; with CHP-126, more than 8000 nM; in the assay on CMK, 3880 nM.

Regarding `COc1cc(-c2nn([C@H]3CC[C@H](N4CCN(C(C)=O)CC4)CC3)c3ncnc(N)c23)ccc1NC(=O)c1cc2ccccc2n1C`, the IC50 with EVSA-T was more than 5120 nM; with MONO-MAC-6, more than 5120 nM; with NALM-6 it was 2240 nM; in the assay with NCI-H889 it was more than 5120 nM; in the assay on P31-FUJ, more than 5120 nM; with RPMI-6666 it was 1580 nM. The IC50 in the assay on RPMI 8402 (read-out: IC50), in the assay with SIMA, in the assay on BC1 cell line, with CA46, in the assay with CHP-126 and with CMK was more than 5120 nM throughout.

As for `OCCCNc1cc(-c2ccnc(Nc3cccc(Cl)c3)n2)ccn1`, the IC50 is 135 nM with EVSA-T; 85.9 nM in the assay with MONO-MAC-6; 46.8 nM with NALM-6; more than 256 nM with NCI-H889; more than 256 nM in the assay with P31-FUJ; 50.4 nM in the assay on RPMI-6666. In addition, the IC50 with RPMI 8402 (read-out: IC50) is 70.9 nM; in the assay with SIMA it was more than 256 nM; in the assay on BC1 cell line it was 69.5 nM; with CA46, more than 256 nM; with CHP-126, 135 nM; in the assay on CMK, more than 256 nM.

For the compound `Cc1ccc(-c2c(C(=O)CCl)n(CCCO)c3ncnc(N)c23)cc1`, the IC50 with EVSA-T was 2400 nM; in the assay with MONO-MAC-6, 3930 nM; with NALM-6, more than 4000 nM; with NCI-H889, more than 4000 nM; with P31-FUJ it was more than 4000 nM; with RPMI-6666 it was 2330 nM. Further, the half-inhibitory concentration (IC50) in the assay with RPMI 8402 (read-out: IC50), in the assay on SIMA, with BC1 cell line, in the assay with CA46, in the assay on CHP-126 and in the assay with CMK was more than 4000 nM throughout.

As for `C#Cc1cccc(Nc2ncnc3cc(OCCOC)c(OCCOC)cc23)c1` [ERLOTINIB], the half-maximal inhibitory concentration (IC50) in the assay with EVSA-T, in the assay with MONO-MAC-6, in the assay with P31-FUJ, with RPMI-6666, with SIMA and in the assay with BC1 cell line was more than 2000 nM each time. In addition, the IC50 in the assay with CA46, in the assay with CHP-126 and in the assay with CMK was more than 2000 nM in each case.

With `COc1cc2ncn(-c3cc(OCc4ccccc4S(C)(=O)=O)c(C#N)s3)c2cc1OC` [GSK-319347A], the IC50 with EVSA-T, in the assay with MONO-MAC-6, in the assay on NALM-6, in the assay on NCI-H889, in the assay on P31-FUJ and in the assay with RPMI-6666 was more than 5000 nM in each case. Moreover, the 50% inhibitory concentration (IC50) in the assay on RPMI 8402 (read-out: IC50), in the assay with SIMA, in the assay on BC1 cell line, in the assay on CA46, with CHP-126 and in the assay with CMK was more than 5000 nM each time.

For the compound `COc1cc2ncn(-c3cc(OCc4ccccc4C(F)(F)F)c(C(N)=O)s3)c2cc1OC` [GW843682X], the IC50 in the assay with EVSA-T was 237 nM; in the assay on MONO-MAC-6 it was 34.6 nM; in the assay with NALM-6, 24.5 nM; with NCI-H889, 92.4 nM; in the assay on P31-FUJ it was more than 256 nM; in the assay on RPMI-6666, 82.6 nM. Further, the IC50 in the assay with RPMI 8402 (read-out: IC50) was 4.67 nM; in the assay with SIMA it was more than 256 nM; with BC1 cell line, 244 nM; in the assay with CA46, more than 256 nM; with CHP-126, more than 256 nM; in the assay on CMK it was 36 nM.

With `CC(=O)O[C@H]1C(=O)[C@@]2(C)[C@H]([C@H](OC(=O)c3ccccc3)[C@]3(O)C[C@H](OC(=O)[C@H](O)[C@@H](NC(=O)c4ccccc4)c4ccccc4)C(C)=C1C3(C)C)[C@]1(OC(C)=O)CO[C@@H]1C[C@@H]2O` [PACLITAXEL], the IC50 was 39.2 nM in the assay on EVSA-T; 30.2 nM with MONO-MAC-6; 12.1 nM in the assay with NALM-6; 55.9 nM with NCI-H889; more than 102 nM in the assay with P31-FUJ; 21.5 nM in the assay on RPMI-6666. The half-inhibitory concentration (IC50) in the assay with RPMI 8402 (read-out: IC50) is 12.6 nM; in the assay on SIMA, more than 102 nM; with BC1 cell line, more than 102 nM; in the assay on CA46, more than 102 nM; in the assay on CHP-126 it was more than 102 nM; in the assay with CMK, 27.3 nM.

For the compound `N[C@@H](CSC(c1ccccc1)(c1ccccc1)c1ccccc1)C(=O)O` [S-TRITYL-L-CYSTEINE], the IC50 with EVSA-T is 3400 nM; with MONO-MAC-6 it was 1150 nM; in the assay with NALM-6, 676 nM; with NCI-H889, more than 5120 nM; in the assay with P31-FUJ, more than 5120 nM; in the assay with RPMI-6666, more than 5120 nM. Moreover, the IC50 in the assay with RPMI 8402 (read-out: IC50) is 1280 nM; in the assay with SIMA, more than 5120 nM; in the assay on BC1 cell line, more than 5120 nM; in the assay with CA46, more than 5120 nM; in the assay on CHP-126 it was more than 5120 nM; in the assay on CMK, 1560 nM.

Regarding `CC[C@H](CO)Nc1nc(NCc2ccccc2)c2ncn(C(C)C)c2n1` [SELICICLIB], the 50% inhibitory concentration (IC50) was more than 16000 nM in the assay with EVSA-T; more than 16000 nM in the assay with MONO-MAC-6; more than 16000 nM with NALM-6; more than 16000 nM in the assay on NCI-H889; more than 16000 nM in the assay with P31-FUJ; 13900 nM in the assay with RPMI-6666. Further, the IC50 in the assay with RPMI 8402 was 13600 nM; in the assay with SIMA it was more than 16000 nM; with BC1 cell line, more than 16000 nM; in the assay with CA46, more than 16000 nM; in the assay on CHP-126, more than 16000 nM; in the assay on CMK, more than 16000 nM.

For the compound `CCN(CC)CCNC(=O)c1c(C)[nH]c(/C=C2\C(=O)Nc3ccc(F)cc32)c1C` [SUNITINIB], the IC50 was more than 8000 nM in the assay on EVSA-T; 33.8 nM in the assay with MONO-MAC-6; 2900 nM with NALM-6; more than 8000 nM in the assay on NCI-H889; more than 8000 nM in the assay with P31-FUJ; 3540 nM with RPMI-6666. The half-maximal inhibitory concentration (IC50) with RPMI 8402 (read-out: IC50) is 2340 nM; in the assay with SIMA, more than 8000 nM; in the assay with BC1 cell line it was 7250 nM; in the assay with CA46, 7580 nM; in the assay on CHP-126, more than 8000 nM; with CMK, 1960 nM.
